For this experiment, the target named is Beta-3 Adrenergic Receptor (Homo sapiens (Human), UniProt P13945). Nature of the experiment: Homogeneous Time-Resolved Fluorescence (HTRF) cAMP antagonist assay, IC50 determination. The experiment is classed as cell-based. To be noted: CHO-K1 cells stably expressing recombinant receptor, isoproterenol at EC90. The method in brief: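 CHO-K1 cells stably expressing the recombinant receptor were preincubated with compound (10-point, 5-fold dilutions; top final typically 10 or 100 μM) in PBS with 1 mM IBMX, then stimulated with isoproterenol at its EC90 for 1 h at room temperature. cAMP was read by HTRF against an on-plate standard curve.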
A general note: Time-resolved FRET reads energy transfer from a long-lived donor to a nearby acceptor.

The structures appear in SMILES notation.

The source of these data is patent US11987588B2, “Modulators of the beta-3 adrenergic receptor useful for the treatment or prevention of heart failure and disorders related thereto” (Arena Pharmaceuticals, Inc., priority 2017, dated 2024).

Sequence of Beta-3 Adrenergic Receptor (P13945 whole entry, species assumed): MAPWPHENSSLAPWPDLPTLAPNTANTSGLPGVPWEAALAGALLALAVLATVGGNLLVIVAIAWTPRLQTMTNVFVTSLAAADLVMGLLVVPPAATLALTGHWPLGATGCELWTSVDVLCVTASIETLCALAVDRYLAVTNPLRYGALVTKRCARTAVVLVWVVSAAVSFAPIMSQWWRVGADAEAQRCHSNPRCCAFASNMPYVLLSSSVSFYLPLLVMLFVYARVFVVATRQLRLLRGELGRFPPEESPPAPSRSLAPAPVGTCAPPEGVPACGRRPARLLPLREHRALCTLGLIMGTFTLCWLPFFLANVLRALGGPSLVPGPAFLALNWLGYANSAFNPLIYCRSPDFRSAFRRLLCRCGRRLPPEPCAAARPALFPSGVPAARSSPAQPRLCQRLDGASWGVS

The IC50 is the concentration that gives 50% inhibition. As to `CNS(=O)(=O)c1cccc(OC[C@@H](O)CN[C@H]2COC3(CCN(S(=O)(=O)c4cnc5c(c4)N(C)C[C@@H](C)O5)CC3)C2)c1` [Compound 468, 3-((S)-3-((R)-8-((R)-1,3-dimethyl-2,3-dihydro-1H-pyrido[2,3-b][1,4]oxazin-7-ylsulfonyl)-1-oxa-8-azaspiro[4.5]decan-3-ylamino)-2-hydroxypropoxy)-N-methylbenzenesulfonamide], the IC50 was 31.1 nM.

With `CN1CCOc2ncc(S(=O)(=O)N3CCC4(CC3)C[C@@H](NC[C@H](O)COc3cccc(S(=O)(=O)NC5CCCC5O)c3)CO4)cc21` (stereo in doubt) [Compound 437, 3-((S)-2-hydroxy-3-((R)-8-(1-methyl-2,3-dihydro-1H-pyrido[2,3-b][1,4]oxazin-7-ylsulfonyl)-1-oxa-8-azaspiro[4.5]decan-3-ylamino)propoxy)-N-((1R,2S)-2-hydroxycyclopentyl)benzenesulfonamide], the IC50 was determined as 472 nM.

Take `O=S(=O)(NCCF)c1cccc(OC[C@@H](O)CNC2COC3(CCN(S(=O)(=O)c4ccc5ccccc5c4)CC3)C2)c1` (stereo partly drawn) [Compound 356, N-(2-fluoroethyl)-3-((2S)-2-hydroxy-3-(8-(naphthalen-2-ylsulfonyl)-1-oxa-8-azaspiro[4.5]decan-3-ylamino)propoxy)benzenesulfonamide]: the IC50 amounted to 16.9 nM.

Consider `CNS(=O)(=O)c1cccc(OC[C@@H](O)CNC2COC3(CCN(S(=O)(=O)c4cccc(-c5ccc(CN[C@@H](CO)C(N)=O)cc5)c4)CC3)C2)c1` (stereo partly drawn) [Compound 345, (2S)-3-hydroxy-2-((3′-(3-((S)-2-hydroxy-3-(3-(N-methylsulfamoyl)phenoxy)propylamino)-1-oxa-8-azaspiro[4.5]decan-8-ylsulfonyl)biphenyl-4-yl)methylamino)propanamide], for which the IC50 came to 107 nM.

On to `C[C@H](CO)NS(=O)(=O)c1cccc(OC[C@@H](O)CNC2COC3(CCN(S(=O)(=O)c4ccc5ccccc5c4)CC3)C2)c1` (stereo partly drawn) [Compound 96, 3-((2S)-2-hydroxy-3-(8-(naphthalen-2-ylsulfonyl)-1-oxa-8-azaspiro[4.5]decan-3-ylamino)propoxy)-N—((R)-1-hydroxypropan-2-yl)benzenesulfonamide], for which the IC50 turned out to be 42.1 nM.

On to `O=S(=O)(NC(CO)CO)c1cccc(OC[C@@H](O)CNC2COC3(CCN(S(=O)(=O)c4ccc5ccccc5c4)CC3)C2)c1` (stereo partly drawn) [Compound 95, N-(1,3-dihydroxypropan-2-yl)-3-((2S)-2-hydroxy-3-(8-(naphthalen-2-ylsulfonyl)-1-oxa-8-azaspiro[4.5]decan-3-ylamino)propoxy)benzenesulfonamide], for which the concentration for half-maximal inhibition (IC50) worked out at 159 nM.

As for `CNS(=O)(=O)c1cccc(OC[C@@H](O)CN[C@H]2COC3(CCN(S(=O)(=O)c4cnc5c(c4)CNC5)CC3)C2)c1` [Compound 482, 3-((S)-3-((R)-8-(6,7-dihydro-5H-pyrrolo[3,4-b]pyridin-3-ylsulfonyl)-1-oxa-8-azaspiro[4.5]decan-3-ylamino)-2-hydroxypropoxy)-N-methylbenzenesulfonamide], the IC50 amounted to 1510 nM.

Turning to `CCOc1nc2c(cc1S(=O)(=O)N1CCC3(CC1)C[C@H](NC[C@H](O)COc1cccc(S(=O)(=O)NC)c1)CO3)N(C)CCO2` [Compound 450, 3-((S)-3-((S)-8-(6-ethoxy-1-methyl-2,3-dihydro-1H-pyrido[2,3-b][1,4]oxazin-7-ylsulfonyl)-1-oxa-8-azaspiro[4.5]decan-3-ylamino)-2-hydroxypropoxy)-N-methylbenzenesulfonamide], the IC50 was 28.2 nM.

For the molecule `CNS(=O)(=O)c1cccc(OC[C@@H](O)CN[C@H]2COC3(CCN(S(=O)(=O)c4ccc[n+]([O-])c4)CC3)C2)c1` [Compound 496, 3-((R)-3-((S)-2-hydroxy-3-(3-(N-methylsulfamoyl)phenoxy)propylamino)-1-oxa-8-azaspiro[4.5]decan-8-ylsulfonyl)pyridine 1-oxide], the IC50 stood at 541 nM.

For the molecule `CNS(=O)(=O)c1cccc(OC[C@@H](O)CN[C@H]2COC3(CCN(c4nccc(C(=O)O)n4)CC3)C2)c1` [Compound 582, 2-((R)-3-((S)-2-hydroxy-3-(3-(N-methylsulfamoyl)phenoxy)propylamino)-1-oxa-8-azaspiro[4.5]decan-8-yl)pyrimidine-4-carboxylic acid], the IC50 worked out at 100000 nM.

Turning to `CNS(=O)(=O)c1cccc(OC[C@@H](O)CNC2COC3(CCN(S(=O)(=O)c4cccc(-c5ccnc(C)c5)c4)CC3)C2)c1` (stereo partly drawn) [Compound 107, 3-((2S)-2-hydroxy-3-(8-(3-(2-methylpyridin-4-yl)phenylsulfonyl)-1-oxa-8-azaspiro[4.5]decan-3-ylamino)propoxy)-N-methylbenzenesulfonamide], the IC50 amounted to 10.9 nM.

On to `CCNS(=O)(=O)c1cccc(OC[C@@H](O)CNC2COC3(CCN(S(=O)(=O)c4ccc(-c5ccccc5)s4)CC3)C2)c1` (stereo partly drawn) [Compound 233, N-ethyl-3-((2S)-2-hydroxy-3-(8-(5-phenylthiophen-2-ylsulfonyl)-1-oxa-8-azaspiro[4.5]decan-3-ylamino)propoxy)benzenesulfonamide], for which the IC50 stood at 156 nM.

For `CNS(=O)(=O)c1cccc(OC[C@@H](O)CNC2COC3(CCN(S(=O)(=O)c4ccc(-c5cc(C(F)(F)F)nn5C)s4)CC3)C2)c1` (stereo partly drawn) [Compound 191, 3-((2S)-2-hydroxy-3-(8-(5-(1-methyl-3-(trifluoromethyl)-1H-pyrazol-5-yl)thiophen-2-ylsulfonyl)-1-oxa-8-azaspiro[4.5]decan-3-ylamino)propoxy)-N-methylbenzenesulfonamide], the IC50 amounted to 80.9 nM.

Take `CNS(=O)(=O)c1cccc(OC[C@@H](O)CNC2COC3(CCN(S(=O)(=O)c4ccc5ccccc5c4)CC3)C2)c1` (stereo partly drawn) [Compound 1, 3-((2S)-2-hydroxy-3-(8-(naphthalen-2-ylsulfonyl)-1-oxa-8-azaspiro[4.5]decan-3-ylamino)propoxy)-N-methylbenzenesulfonamide]: the IC50 worked out at 5.4 nM.

In the case of `CNS(=O)(=O)c1cccc(OC[C@@H](O)CNC2COC3(CCN(S(=O)(=O)c4cnn(-c5ccccc5)c4)CC3)C2)c1` (stereo partly drawn) [Compound 243, 3-((2S)-2-hydroxy-3-(8-(1-phenyl-1H-pyrazol-4-ylsulfonyl)-1-oxa-8-azaspiro[4.5]decan-3-ylamino)propoxy)-N-methylbenzenesulfonamide], the IC50 was 26.2 nM.

Take `CN(C)S(=O)(=O)c1cccc(OC[C@@H](O)CNC2COC3(CCN(S(=O)(=O)c4ccc5nsnc5c4)CC3)C2)c1` (stereo partly drawn) [Compound 251, 3-((2S)-3-(8-(benzo[c][1,2,5]thiadiazol-5-ylsulfonyl)-1-oxa-8-azaspiro[4.5]decan-3-ylamino)-2-hydroxypropoxy)-N,N-dimethylbenzenesulfonamide]: the IC50 was determined as 32.9 nM.

As for `CN(C)CCCNS(=O)(=O)c1cccc(OC[C@@H](O)CNC2COC3(CCN(S(=O)(=O)c4ccc5c(c4)CCCC5)CC3)C2)c1` (stereo partly drawn) [Compound 314, N-(3-(dimethylamino)propyl)-3-((2S)-2-hydroxy-3-(8-(5,6,7,8-tetrahydronaphthalen-2-ylsulfonyl)-1-oxa-8-azaspiro[4.5]decan-3-ylamino)propoxy)benzenesulfonamide], the IC50 is 716 nM.

`CNS(=O)(=O)c1cccc(OC[C@@H](O)CNC2COC3(CCN(S(=O)(=O)c4cccc(-c5ccc(OCC#N)cc5)c4)CC3)C2)c1` (stereo partly drawn) [Compound 114, 3-((2S)-3-(8-(4′-(cyanomethoxy)biphenyl-3-ylsulfonyl)-1-oxa-8-azaspiro[4.5]decan-3-ylamino)-2-hydroxypropoxy)-N-methylbenzenesulfonamide]: the IC50 was determined as 10.3 nM.

For the molecule `CNS(=O)(=O)c1cccc(OC[C@@H](O)CNC2COC3(CCN(S(=O)(=O)c4cc(F)ccc4C)CC3)C2)c1` (stereo partly drawn) [Compound 204, 3-((2S)-3-(8-(5-fluoro-2-methylphenylsulfonyl)-1-oxa-8-azaspiro[4.5]decan-3-ylamino)-2-hydroxypropoxy)-N-methylbenzenesulfonamide], the IC50 was 12.1 nM.

Take `NS(=O)(=O)c1cccc(OC[C@@H](O)CN[C@H]2COC3(CCN(S(=O)(=O)c4c[nH]c5c(F)cccc5c4=O)CC3)C2)c1` [Compound 554, 3-((S)-3-((R)-8-(8-fluoro-4-oxo-1,4-dihydroquinolin-3-ylsulfonyl)-1-oxa-8-azaspiro[4.5]decan-3-ylamino)-2-hydroxypropoxy)benzenesulfonamide]: the IC50 amounted to 34.6 nM.

As for `CNS(=O)(=O)c1cccc(OC[C@@H](O)CNC2COC3(CCN(S(=O)(=O)c4cn(C)nc4C(F)(F)F)CC3)C2)c1` (stereo partly drawn) [Compound 152, 3-((2S)-2-hydroxy-3-(8-(1-methyl-3-(trifluoromethyl)-1H-pyrazol-4-ylsulfonyl)-1-oxa-8-azaspiro[4.5]decan-3-ylamino)propoxy)-N-methylbenzenesulfonamide], the IC50 amounted to 90.7 nM.

For `CCCN1CCOc2ncc(S(=O)(=O)N3CCC4(CC3)C[C@@H](NC[C@H](O)COc3cccc(S(=O)(=O)NC)c3)CO4)cc21` [Compound 470, 3-((S)-2-hydroxy-3-((R)-8-(1-propyl-2,3-dihydro-1H-pyrido[2,3-b][1,4]oxazin-7-ylsulfonyl)-1-oxa-8-azaspiro[4.5]decan-3-ylamino)propoxy)-N-methylbenzenesulfonamide], the IC50 came to 35.8 nM.

Turning to `CN1CCOc2ncc(S(=O)(=O)N3CCC4(CC3)C[C@@H](NC[C@H](O)COc3cccc(S(=O)(=O)N[C@@H]5CCCC[C@@H]5O)c3)CO4)cc21` [Compound 435, 3-((S)-2-hydroxy-3-((R)-8-(1-methyl-2,3-dihydro-1H-pyrido[2,3-b][1,4]oxazin-7-ylsulfonyl)-1-oxa-8-azaspiro[4.5]decan-3-ylamino)propoxy)-N-((1R,2S)-2-hydroxycyclohexyl)benzenesulfonamide], the IC50 was determined as 191 nM.

As to `NS(=O)(=O)c1cccc(OC[C@@H](O)CN[C@H]2COC3(CCN(S(=O)(=O)c4ccc5c(c4)CCCC5)CC3)C2)c1` [Compound 556, 3-((S)-2-hydroxy-3-((R)-8-(5,6,7,8-tetrahydronaphthalen-2-ylsulfonyl)-1-oxa-8-azaspiro[4.5]decan-3-ylamino)propoxy)benzenesulfonamide], the IC50 is 48.5 nM.
